Reference: patent US10072017B2, “Compounds and methods for the treatment of cystic fibrosis” (Flatley Discovery Lab, LLC, priority 2015, dated 2018)

Biological target: T1, CFTR (Homo sapiens, UniProt P13569, DEL508-508)
T1 construct: Primary CF airway epithelial cells were obtained from the UNC Cystic Fibrosis Tissue Procurement and Cell Culture Core; host or cells: primary CF airway epithelial cells
Test: Equivalent current assay in Primary CF airway epithelial cells (NAUC)
Assay type: cell-based
Conditions: 24 h, normalized to VX809 (3 μM) positive control; for Nauc @ 3 μM: 3 μM test compound; for Nauc @ 10 μM: 10 μM test compound
Procedure, shortened: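 NAUC is the area under the curve from forskolin (10 μM) plus VX770 (1 μM) addition to CFTR-172 (20 μM) block, after benzamil (5 μM). It is corrected for vehicle and scaled to 3 μM VX809 as 1.0 and DMSO as 0.0. Cells were exposed for 24 h to compounds with VX809; medians of ≥4 replicates were fitted sigmoidally.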

T1 sequence (P13569 with tags, fused parts or gaps DEL508-508): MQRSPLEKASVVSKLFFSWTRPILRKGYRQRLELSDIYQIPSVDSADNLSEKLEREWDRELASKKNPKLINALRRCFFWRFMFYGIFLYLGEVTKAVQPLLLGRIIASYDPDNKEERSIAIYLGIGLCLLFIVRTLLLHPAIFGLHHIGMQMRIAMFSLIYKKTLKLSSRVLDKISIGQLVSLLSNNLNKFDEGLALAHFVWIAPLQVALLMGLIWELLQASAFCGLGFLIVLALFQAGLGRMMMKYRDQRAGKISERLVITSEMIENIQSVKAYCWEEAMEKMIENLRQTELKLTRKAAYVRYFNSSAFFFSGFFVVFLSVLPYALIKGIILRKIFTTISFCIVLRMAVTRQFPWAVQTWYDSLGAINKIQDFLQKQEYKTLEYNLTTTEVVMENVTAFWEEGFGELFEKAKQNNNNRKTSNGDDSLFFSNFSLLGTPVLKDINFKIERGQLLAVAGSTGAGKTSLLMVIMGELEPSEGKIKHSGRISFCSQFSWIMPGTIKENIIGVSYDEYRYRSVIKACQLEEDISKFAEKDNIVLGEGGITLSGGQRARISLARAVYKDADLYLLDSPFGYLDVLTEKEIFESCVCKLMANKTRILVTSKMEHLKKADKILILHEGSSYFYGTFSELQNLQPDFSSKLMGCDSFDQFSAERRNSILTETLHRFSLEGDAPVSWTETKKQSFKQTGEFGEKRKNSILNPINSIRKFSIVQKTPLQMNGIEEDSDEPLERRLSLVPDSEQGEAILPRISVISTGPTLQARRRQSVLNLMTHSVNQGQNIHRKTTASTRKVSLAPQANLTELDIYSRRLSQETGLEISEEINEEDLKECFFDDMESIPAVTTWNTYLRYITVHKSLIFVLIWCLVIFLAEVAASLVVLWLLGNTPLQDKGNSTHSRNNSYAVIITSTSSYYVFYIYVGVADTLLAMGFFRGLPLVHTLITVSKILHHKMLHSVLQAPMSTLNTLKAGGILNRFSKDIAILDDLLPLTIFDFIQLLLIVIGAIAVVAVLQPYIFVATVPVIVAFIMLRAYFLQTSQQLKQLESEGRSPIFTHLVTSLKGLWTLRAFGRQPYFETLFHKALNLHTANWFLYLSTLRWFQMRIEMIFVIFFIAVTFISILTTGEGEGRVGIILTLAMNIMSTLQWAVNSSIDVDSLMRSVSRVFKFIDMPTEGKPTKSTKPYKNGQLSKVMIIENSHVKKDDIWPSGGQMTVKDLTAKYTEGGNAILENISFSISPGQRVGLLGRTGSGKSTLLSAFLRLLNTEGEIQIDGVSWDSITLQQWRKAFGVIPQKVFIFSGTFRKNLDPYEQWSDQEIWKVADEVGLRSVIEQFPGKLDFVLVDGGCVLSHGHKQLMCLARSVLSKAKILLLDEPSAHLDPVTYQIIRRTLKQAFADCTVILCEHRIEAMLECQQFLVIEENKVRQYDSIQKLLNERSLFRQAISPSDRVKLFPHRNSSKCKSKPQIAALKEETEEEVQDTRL

Structure (SMILES) | Nauc @ 3 μM | Nauc @ 10 μM
COc1cccc(CC2NC3(C(=O)Nc4c(Cl)cc(Cl)cc43)C3C(=O)N(c4cc(Cl)cc(Cl)c4)C(=O)C23)c1 (stereo not drawn) [Example 200] | ++ (NAUC “++” refers to an observed NAUC 170-140% of positive control) | + (NAUC “+” refers to an observed NAUC <140% of positive control)
COc1ccccc1CC1NC2(C(=O)Nc3c(Cl)cc(Cl)cc32)C2C(=O)N(c3cc(Cl)cc(Cl)c3)C(=O)C12 (stereo not drawn) [Example 201] | + (NAUC “+” refers to an observed NAUC <140% of positive control) | +++ (NAUC “+++” refers to an observed NAUC >170% of positive control)
O=C1C2C(Cc3cccc(O)c3)NC3(C(=O)Nc4c(Cl)cc(Cl)cc43)C2C(=O)N1c1cc(Cl)cc(Cl)c1 (stereo not drawn) [Example 202] | + (NAUC “+” refers to an observed NAUC <140% of positive control) | ++ (NAUC “++” refers to an observed NAUC 170-140% of positive control)
O=C1C2C(Cc3ccccn3)NC3(C(=O)Nc4c(Cl)cc(Cl)cc43)C2C(=O)N1c1cc(Cl)cc(Cl)c1 (stereo not drawn) [Example 203] | ++ (NAUC “++” refers to an observed NAUC 170-140% of positive control) | ++ (NAUC “++” refers to an observed NAUC 170-140% of positive control)
C[C@]1(F)CC2C3C(=O)N(c4cc(Cl)cc(Cl)c4)C(=O)C3C3(C(=O)Nc4c(Cl)cc(Cl)cc43)N2C1 (stereo partly drawn) [Example 204] | + (NAUC “+” refers to an observed NAUC <140% of positive control) | +++ (NAUC “+++” refers to an observed NAUC >170% of positive control)
COc1cc(Cl)cc(N2C(=O)C3C4C[C@](C)(F)CN4C4(C(=O)Nc5c(Cl)cc(Cl)cc54)C3C2=O)c1 (stereo partly drawn) [Example 205] | ++ (NAUC “++” refers to an observed NAUC 170-140% of positive control) | +++ (NAUC “+++” refers to an observed NAUC >170% of positive control)
C[C@@]1(O)CC2C3C(=O)N(c4cc(Cl)cc(Cl)n4)C(=O)C3C3(C(=O)Nc4c(Cl)cc(Cl)cc43)N2C1 (stereo partly drawn) [Example 206] | ++ (NAUC “++” refers to an observed NAUC 170-140% of positive control) | +++ (NAUC “+++” refers to an observed NAUC >170% of positive control)
Nc1ccc(CC2NC3(C(=O)Nc4c(Cl)cc(Cl)cc43)C3C(=O)N(c4cc(Cl)cc(Cl)c4)C(=O)C23)cc1 (stereo not drawn) [Example 207] | ++ (NAUC “++” refers to an observed NAUC 170-140% of positive control) | + (NAUC “+” refers to an observed NAUC <140% of positive control)
O=C1C2C(C3CCCCC3)NC3(C(=O)Nc4c(Cl)cc(Cl)cc43)C2C(=O)N1c1cc(Cl)cc(Cl)c1 (stereo not drawn) [Example 208] | ++ (NAUC “++” refers to an observed NAUC 170-140% of positive control) | + (NAUC “+” refers to an observed NAUC <140% of positive control)
O=C1C2CN(c3ccccc3)C3(C(=O)Nc4c(Cl)cc(Cl)cc43)C2C(=O)N1c1cc(Cl)cc(Cl)c1 (stereo not drawn) [Example 209] | + (NAUC “+” refers to an observed NAUC <140% of positive control) | +++ (NAUC “+++” refers to an observed NAUC >170% of positive control)
O=C1C2C(C(=O)N1c1cc(Cl)cc(Cl)c1)C1(NC23CC3)C(=O)Nc2c(Cl)cc(Cl)cc21 (stereo not drawn) [Example 210] | + (NAUC “+” refers to an observed NAUC <140% of positive control) | ++ (NAUC “++” refers to an observed NAUC 170-140% of positive control)
O=C1C2C(C(=O)N1c1cc(Cl)cc(Cl)c1)C1(NC23CCC3)C(=O)Nc2c(Cl)cc(Cl)cc21 (stereo not drawn) [Example 211] | ++ (NAUC “++” refers to an observed NAUC 170-140% of positive control) | ++ (NAUC “++” refers to an observed NAUC 170-140% of positive control)
O=C1C2C(c3ccccn3)NC3(C(=O)Nc4c(Cl)cc(Cl)cc43)C2C(=O)N1c1cc(Cl)cc(Cl)c1 (stereo not drawn) [Example 212] | + (NAUC “+” refers to an observed NAUC <140% of positive control) | ++ (NAUC “++” refers to an observed NAUC 170-140% of positive control)
COc1c(Cl)cc(N2C(=O)C3C4CC(C(F)(F)F)CN4C4(C(=O)Nc5c(Cl)cc(Cl)cc54)C3C2=O)cc1Cl (stereo not drawn) [Example 213] | ++ (NAUC “++” refers to an observed NAUC 170-140% of positive control) | +++ (NAUC “+++” refers to an observed NAUC >170% of positive control)
[2H]C([2H])([2H])C1(C([2H])([2H])[2H])CC2C3C(=O)N(c4cc(Cl)c(OC)c(Cl)c4)C(=O)C3C3(C(=O)Nc4c(Cl)cc(Cl)cc43)N2C1 (stereo not drawn) [Example 214] | +++ (NAUC “+++” refers to an observed NAUC >170% of positive control) | +++ (NAUC “+++” refers to an observed NAUC >170% of positive control)
O=C1C2C3CC(C(F)(F)F)CN3C3(C(=O)Nc4c(Cl)cc(Cl)cc43)C2C(=O)N1c1cc(Cl)cc(Cl)c1 (stereo not drawn) [Example 215] | +++ (NAUC “+++” refers to an observed NAUC >170% of positive control) | ++ (NAUC “++” refers to an observed NAUC 170-140% of positive control)
O=C1C2C3CCCN3C3(C(=O)Nc4c(Cl)cc(Cl)cc43)C2C(=O)N1c1nccs1 (stereo not drawn) [Example 216] | ++ (NAUC “++” refers to an observed NAUC 170-140% of positive control) | + (NAUC “+” refers to an observed NAUC <140% of positive control)
O=C1C2C(Cc3c(F)cccc3Cl)NC3(C(=O)Nc4c(Cl)cc(Cl)cc43)C2C(=O)N1c1cc(Cl)cc(Cl)c1 (stereo not drawn) [Example 217] | ++ (NAUC “++” refers to an observed NAUC 170-140% of positive control) | ++ (NAUC “++” refers to an observed NAUC 170-140% of positive control)
O=C1C2C(Cc3ccccc3OC(F)(F)F)NC3(C(=O)Nc4c(Cl)cc(Cl)cc43)C2C(=O)N1c1cc(Cl)cc(Cl)c1 (stereo not drawn) [Example 222] | +++ (NAUC “+++” refers to an observed NAUC >170% of positive control) | ++ (NAUC “++” refers to an observed NAUC 170-140% of positive control)
C[C@]1(O)CC2C3C(=O)N(c4cc(Cl)cc(Cl)n4)C(=O)C3C3(C(=O)Nc4c(Cl)cc(Cl)cc43)N2C1 (stereo partly drawn) [Example 223] | + (NAUC “+” refers to an observed NAUC <140% of positive control) | +++ (NAUC “+++” refers to an observed NAUC >170% of positive control)
O=C1C2C3CCCN3C3(C(=O)Nc4c(Cl)cc(Cl)cc43)C2C(=O)N1c1cc(Cl)c(OC(F)F)c(Cl)c1 (stereo not drawn) [Example 224] | +++ (NAUC “+++” refers to an observed NAUC >170% of positive control) | +++ (NAUC “+++” refers to an observed NAUC >170% of positive control)
